Laboratory results as given in patent publication US10168342B2, “Lipid probes and uses thereof” (THE SCRIPPS RESEARCH INSTITUTE, priority 2015, dated 2019).
Where two headings read alike, the source gives them in different places.

Key:
[1] = target: T1, AEA-DA lipid probe targets in Neuro2a cells (Mus musculus, UniProt D3YZZ5)
T1 sequence (D3YZZ5 35-224): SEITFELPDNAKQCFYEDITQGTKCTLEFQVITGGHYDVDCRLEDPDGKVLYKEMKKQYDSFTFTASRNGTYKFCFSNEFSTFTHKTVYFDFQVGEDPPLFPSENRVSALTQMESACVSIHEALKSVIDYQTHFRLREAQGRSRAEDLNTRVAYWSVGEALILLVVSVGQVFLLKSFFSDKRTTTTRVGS

[2] = target: T2, AEA-DA lipid probe targets in Neuro2a cells (Mus musculus, UniProt P51174)
T2 sequence (P51174 31-430): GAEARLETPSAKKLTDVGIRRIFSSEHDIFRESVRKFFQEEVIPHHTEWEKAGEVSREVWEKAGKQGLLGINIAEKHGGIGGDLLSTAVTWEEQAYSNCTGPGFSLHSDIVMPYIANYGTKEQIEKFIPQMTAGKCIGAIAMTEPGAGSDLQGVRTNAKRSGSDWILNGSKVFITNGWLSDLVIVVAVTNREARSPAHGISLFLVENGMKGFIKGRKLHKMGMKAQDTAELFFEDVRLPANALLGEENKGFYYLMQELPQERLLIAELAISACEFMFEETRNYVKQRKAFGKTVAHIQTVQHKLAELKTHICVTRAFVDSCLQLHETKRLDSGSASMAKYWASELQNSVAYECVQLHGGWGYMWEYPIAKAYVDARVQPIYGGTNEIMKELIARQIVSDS

[3] = target: AEA-DA lipid probe targets in Neuro2a cells (Mus musculus, UniProt P70699)
Chain of AEA-DA lipid probe targets in Neuro2a cells (Mus musculus, UniProt P70699) (P70699 70-953): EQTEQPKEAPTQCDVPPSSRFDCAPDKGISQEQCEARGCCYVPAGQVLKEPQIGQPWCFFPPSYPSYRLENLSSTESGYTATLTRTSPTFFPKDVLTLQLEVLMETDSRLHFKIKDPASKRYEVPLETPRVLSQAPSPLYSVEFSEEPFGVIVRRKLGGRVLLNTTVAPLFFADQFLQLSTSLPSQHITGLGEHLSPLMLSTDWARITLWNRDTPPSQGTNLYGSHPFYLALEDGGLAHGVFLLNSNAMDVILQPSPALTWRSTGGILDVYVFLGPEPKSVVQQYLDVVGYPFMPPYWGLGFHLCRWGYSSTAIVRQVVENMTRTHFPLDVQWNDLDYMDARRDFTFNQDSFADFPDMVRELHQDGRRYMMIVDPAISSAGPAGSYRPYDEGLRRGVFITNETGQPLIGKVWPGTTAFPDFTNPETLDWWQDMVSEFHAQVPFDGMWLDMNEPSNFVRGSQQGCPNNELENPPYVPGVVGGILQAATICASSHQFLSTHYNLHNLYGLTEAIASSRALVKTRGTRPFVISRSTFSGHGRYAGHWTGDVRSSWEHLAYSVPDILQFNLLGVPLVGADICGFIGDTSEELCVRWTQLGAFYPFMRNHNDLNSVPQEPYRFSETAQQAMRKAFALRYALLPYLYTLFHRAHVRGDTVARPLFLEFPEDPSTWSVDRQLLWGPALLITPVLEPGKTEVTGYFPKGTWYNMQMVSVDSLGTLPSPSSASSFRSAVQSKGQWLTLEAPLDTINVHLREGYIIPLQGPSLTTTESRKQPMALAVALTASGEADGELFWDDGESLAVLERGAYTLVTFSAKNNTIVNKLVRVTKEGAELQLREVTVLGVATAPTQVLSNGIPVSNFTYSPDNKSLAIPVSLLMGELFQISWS

[4] = target: T3, AEA-DA lipid probe targets in Neuro2a cells (Mus musculus, UniProt Q61595)
T3 sequence (Q61595 1-1327): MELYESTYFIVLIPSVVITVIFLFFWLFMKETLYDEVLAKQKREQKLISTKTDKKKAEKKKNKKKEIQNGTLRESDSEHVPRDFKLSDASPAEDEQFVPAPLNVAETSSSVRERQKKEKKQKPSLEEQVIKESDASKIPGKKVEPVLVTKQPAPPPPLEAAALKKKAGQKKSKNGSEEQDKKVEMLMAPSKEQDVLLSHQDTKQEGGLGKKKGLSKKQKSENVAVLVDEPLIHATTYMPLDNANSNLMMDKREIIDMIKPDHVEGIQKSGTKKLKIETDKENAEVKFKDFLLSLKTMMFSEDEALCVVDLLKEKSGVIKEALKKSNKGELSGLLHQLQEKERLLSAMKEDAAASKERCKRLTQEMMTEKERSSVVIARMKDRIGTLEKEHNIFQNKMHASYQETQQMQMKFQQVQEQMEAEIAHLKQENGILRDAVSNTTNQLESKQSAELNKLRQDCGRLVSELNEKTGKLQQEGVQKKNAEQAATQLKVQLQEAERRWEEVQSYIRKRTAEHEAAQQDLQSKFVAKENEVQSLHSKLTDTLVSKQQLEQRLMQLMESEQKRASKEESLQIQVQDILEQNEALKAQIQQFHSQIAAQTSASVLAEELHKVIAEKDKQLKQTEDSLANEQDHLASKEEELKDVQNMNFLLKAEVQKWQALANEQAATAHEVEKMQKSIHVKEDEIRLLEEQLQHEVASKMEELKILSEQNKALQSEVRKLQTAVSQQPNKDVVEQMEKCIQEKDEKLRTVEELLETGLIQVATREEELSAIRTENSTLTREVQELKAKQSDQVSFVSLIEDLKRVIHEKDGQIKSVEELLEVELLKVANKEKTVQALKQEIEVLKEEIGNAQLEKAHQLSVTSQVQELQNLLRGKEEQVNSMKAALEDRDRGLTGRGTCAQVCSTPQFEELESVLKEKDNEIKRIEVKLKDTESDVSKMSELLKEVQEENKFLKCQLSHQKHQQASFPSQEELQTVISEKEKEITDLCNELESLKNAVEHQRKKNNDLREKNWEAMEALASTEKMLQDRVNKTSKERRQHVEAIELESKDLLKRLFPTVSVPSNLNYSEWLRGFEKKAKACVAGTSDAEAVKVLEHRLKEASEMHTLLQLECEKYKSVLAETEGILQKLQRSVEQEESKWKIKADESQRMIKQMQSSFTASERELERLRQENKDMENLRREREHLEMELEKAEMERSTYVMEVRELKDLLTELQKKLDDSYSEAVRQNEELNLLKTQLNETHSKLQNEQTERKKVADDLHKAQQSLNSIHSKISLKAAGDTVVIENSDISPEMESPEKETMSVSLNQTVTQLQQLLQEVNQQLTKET

[5] = target: T4, AEA-DA lipid probe targets in Neuro2a cells (Mus musculus, UniProt Q8BP40)
T4 sequence (Q8BP40 26-418): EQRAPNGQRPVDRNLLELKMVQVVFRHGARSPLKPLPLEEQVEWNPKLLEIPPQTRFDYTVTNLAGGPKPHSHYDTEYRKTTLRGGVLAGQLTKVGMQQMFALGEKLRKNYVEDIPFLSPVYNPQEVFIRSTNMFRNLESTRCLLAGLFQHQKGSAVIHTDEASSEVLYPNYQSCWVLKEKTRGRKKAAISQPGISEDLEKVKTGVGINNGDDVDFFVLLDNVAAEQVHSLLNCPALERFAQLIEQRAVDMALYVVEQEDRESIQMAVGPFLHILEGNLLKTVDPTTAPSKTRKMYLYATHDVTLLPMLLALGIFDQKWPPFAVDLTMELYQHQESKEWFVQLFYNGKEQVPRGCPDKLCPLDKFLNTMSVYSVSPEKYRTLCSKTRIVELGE

[6] = target: AEA-DA lipid probe targets in Neuro2a cells (Mus musculus, UniProt Q91VE6)
Chain of AEA-DA lipid probe targets in Neuro2a cells (Mus musculus, UniProt Q91VE6) (Q91VE6 whole entry): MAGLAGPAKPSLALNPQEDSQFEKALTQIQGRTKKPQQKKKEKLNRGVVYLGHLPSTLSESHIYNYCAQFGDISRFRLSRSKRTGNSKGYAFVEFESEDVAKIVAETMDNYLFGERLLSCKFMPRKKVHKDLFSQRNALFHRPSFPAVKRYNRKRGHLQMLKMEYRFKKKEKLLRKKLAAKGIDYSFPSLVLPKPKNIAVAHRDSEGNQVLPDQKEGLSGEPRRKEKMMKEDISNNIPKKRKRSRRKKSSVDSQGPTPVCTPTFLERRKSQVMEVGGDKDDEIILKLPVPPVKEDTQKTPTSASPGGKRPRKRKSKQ

[7] = target: AEA-DA lipid probe targets in Neuro2a cells (Mus musculus, UniProt Q9Z0V8)
Chain of AEA-DA lipid probe targets in Neuro2a cells (Mus musculus, UniProt Q9Z0V8) (Q9Z0V8 whole entry): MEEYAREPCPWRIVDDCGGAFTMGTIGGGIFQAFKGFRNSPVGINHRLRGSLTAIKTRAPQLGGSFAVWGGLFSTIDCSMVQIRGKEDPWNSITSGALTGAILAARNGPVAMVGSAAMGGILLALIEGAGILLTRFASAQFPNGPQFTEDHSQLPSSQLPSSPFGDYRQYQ

SMILES | SILAC ratio, Tmed7 ([1]; competitor 25 μM) | SILAC ratio, Acadl ([2]; competitor 25 μM) | SILAC ratio Gaa ([3]; competitor 25 μM) | SILAC ratio, Ktn1 ([4]; competitor 25 μM) | SILAC ratio, Acp6 ([5]; competitor 25 μM) | SILAC ratio Mki67ip ([6]; competitor 25 μM) | SILAC ratio, Timm17a ([7]; competitor 25 μM) | other results
CCCCC/C=C\C/C=C\C/C=C\C/C=C\CCCC(=O)NCCO [AEA, anandamide, reference compound] | – | – | – | – | – | – | – | SILAC ratio, Tmed7 ([1]; competitor 200 μM): 1.5; SILAC ratio, Acadl ([2]; competitor 200 μM): 1.1; SILAC ratio Gaa ([3]; competitor 200 μM): 1.4; SILAC ratio, Ktn1 ([4]; competitor 200 μM): 1.4; SILAC ratio, Acp6 ([5]; competitor 200 μM): 2.5; SILAC ratio Mki67ip ([6]; competitor 200 μM): 1.4; SILAC ratio, Timm17a ([7]; competitor 200 μM): 1.5
O=C(/C=C/c1cccnc1)NCCCCC1CCN(C(=O)c2ccccc2)CC1 [FK-866, reference compound] | 1.1 | 12.4 | 1.1 | 1.2 | 1.2 | 1.0 | 1.1 | –
CN1CCN(C(=O)c2c(-c3ccccc3)c3cc([N+](=O)[O-])ccc3n2C)CC1 [KML110, (1-Methyl-5-nitro-3-phenyl-1H-indol-2-yl)(4-methylpiperazin-1-yl)methanone] | 1.6 | 1.8 | 1.6 | – | 1.6 | 1.5 | 1.5 | –
CN1CCN(C(=O)c2[nH]c3ccc([N+](=O)[O-])cc3c2-c2ccccc2)CC1 [MJN228, (4-Methylpiperazin-1-yl)(5-nitro-3-phenyl-1H-indol-2-yl)methanone] | 1.5 | 1.8 | 1.2 | 1.4 | 1.5 | 1.5 | 1.4 | SILAC ratio, Tmed7 ([1]; competitor 10 μM): 1.0; SILAC ratio, Tmed7 ([1]; competitor 100 μM): 2.1; SILAC ratio, Acadl ([2]; competitor 10 μM): 1.4; SILAC ratio, Acadl ([2]; competitor 50 μM): 2.0; SILAC ratio, Acadl ([2]; competitor 100 μM): 2.4; SILAC ratio Gaa ([3]; competitor 10 μM): 1.0; SILAC ratio Gaa ([3]; competitor 50 μM): 1.4; SILAC ratio Gaa ([3]; competitor 100 μM): 1.2; SILAC ratio, Ktn1 ([4]; competitor 10 μM): 1.0; SILAC ratio, Ktn1 ([4]; competitor 100 μM): 1.2; SILAC ratio, Acp6 ([5]; competitor 10 μM): 1.5; SILAC ratio, Acp6 ([5]; competitor 50 μM): 1.8; SILAC ratio, Acp6 ([5]; competitor 100 μM): 2.3; SILAC ratio Mki67ip ([6]; competitor 10 μM): 1.2; SILAC ratio Mki67ip ([6]; competitor 50 μM): 1.8; SILAC ratio Mki67ip ([6]; competitor 100 μM): 2.3; SILAC ratio, Timm17a ([7]; competitor 10 μM): 1.1; SILAC ratio, Timm17a ([7]; competitor 50 μM): 1.4; SILAC ratio, Timm17a ([7]; competitor 100 μM): 2.7
C=CCN(C)CCCCCCOc1ccc(C(=O)c2ccc(Br)cc2)c(F)c1 [Ro 48-8071, reference compound] | 1.1 | 1.3 | 0.5 | 0.8 | 0.9 | 1.0 | 2.7 | –
